The record followed here is article PMC7069095, “A cell-permeable peptide-based PROTAC against the oncoprotein CREPT proficiently inhibits pancreatic cancer” (Theranostics, 2020).

Non-standard residues stand in square brackets, D forms with d. Residues, ends and D or L forms follow the SMILES beside them. No end group written: not given here. *: point of attachment. FITC = O=C1OC2(c3ccc(O)cc3Oc3cc(O)ccc32)c2ccc(NC(=S)*)cc21; Hyp = O=C(O)[C@@H]1C[C@@H](O)CN1; Ahx = NCCCCCC(=O)O

One data set relates to Panc-1 cells. In words: Confocal fluorescence imaging of FITC labeled peptides in cells. The class given is cell-based. The conditions noted are these: confocal microscope, 10 μM FITC labeled peptides, Panc-1 cells. The method, then: To examine whether PRTC could permeate into pancreatic cancer cells, we synthesized fluorescein isothiocyanate (FITC) labeled PRTC, PRTC-m, PRTC-v, PRTC-r (PRTC without RRRRK) as well as TAT (a widely used cell penetrating peptide, as a positive control).
Figure 3 Identification of the permeability of PRTC in Panc-1 cells. (A) Entry of FITC- labeled peptides into Panc-1 cells tested by flow cytometry. FITC-TAT is the positive control. Measurements were performed in triplicate. (B) Quantification of cellular uptake of Panc-1 cells treated with different concentrations of FITC-PRTC. (C) Confocal microscope images of Panc-1 cells treated with 10 μM FITC labeled peptides. Scale bars, 10 μm. (D) Confocal microscope images of Panc-1 cells treated with different dosages of FITC-PRTC. Scale bars, 10 μm.

For another data set, the target named is T1, Flag-CREPT (Homo sapiens, UniProt Q9NQG5).
T1 construct: expressed in transfected cells; host or cells: HEK293T
T1 sequence (Q9NQG5 1-326): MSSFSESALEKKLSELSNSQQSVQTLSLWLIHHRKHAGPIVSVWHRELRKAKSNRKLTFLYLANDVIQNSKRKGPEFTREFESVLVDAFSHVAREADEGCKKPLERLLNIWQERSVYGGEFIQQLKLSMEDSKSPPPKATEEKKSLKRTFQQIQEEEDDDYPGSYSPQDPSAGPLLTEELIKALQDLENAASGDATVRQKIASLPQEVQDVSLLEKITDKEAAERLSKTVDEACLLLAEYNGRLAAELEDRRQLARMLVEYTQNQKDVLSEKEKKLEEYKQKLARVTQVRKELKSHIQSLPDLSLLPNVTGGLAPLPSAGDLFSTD
In words: GST pull-down. The class given is binding. Particulars: GST-tagged proteins purified from mammalian (HEK293T) cells. As to the method: HEK293T cells were plated in 100 mm dishes and then transfected with the indicated plasmids. After 24 h, cells were harvested using RIPA buffer with mixed protease inhibitors. Cell lysates were incubated with 30 μL of GST-tagged Sepharose beads and 10 μg of purified proteins from either E. coli or HEK293T cells at 4 °C overnight. Beads were eluted five times with lysis buffer. Western blot was performed using an antibody against GST (Cell Signaling Technology) to analyze the association.

Another data set deals with Myc-CREPT and Myc-CCT. In words: Exogenous IP experiment in HEK293T cells. The class given is binding. The conditions noted are these: GST-tagged CREPT ligand. The method, then:
For exogenous immunoprecipitation assays, HEK293T cells were plated in 60 mm dishes and then transfected with the indicated plasmids. After 24 h, cells were harvested using RIPA buffer (50 mM Tris-HCl pH 8.0, 2 mM EDTA pH 8.0, 150 mM NaCl, 1% NP-40, 0.5% sodium deoxycholate, 0.1% SDS) with mixed protease inhibitors. Cell lysates were incubated with 2 μg of the indicated antibodies and 30 μL of protein A/G-Sepharose beads at 4 °C overnight. Beads were eluted five times with lysis buffer (50 mM Tris-HCl pH 7.6, 1 mM EDTA pH 8.0, 165 mM NaCl, 0.5% NP-40), and thereafter, a western blot assay was performed to analyze the association by using the indicated antibodies. Western blot was performed as previously reported. Anti-β-actin and anti-Flag antibodies were purchased from Sigma. Anti-Myc antibody was purchased from Santa Cruz Biotechnology. Antibody against CREPT was produced in the laboratory.

Data set [1] addresses T2, purified GST-CREPT protein (microscale thermophoresis and thermal shift assay) (UniProt Q9NQG5 1-326).
T2 construct: CREPT (also named RPRD1B); it may be the same as m2 or m3; also called GST-tagged CREPT; purified CREPT proteins; source: purified
T2 sequence (looked up): T1 sequence (Q9NQG5 1-326)
In words: MST; 100 nM FITC-labeled peptide kept constant, gradient dilutions of purified GST-CREPT; Microscale Thermophoresis NT.115, MO.AffinityAnalysis. Particulars: both partners purified. For orientation: Microscale thermophoresis detects binding through changes in fluorescence in a small temperature gradient.

Data set [2] concerns the target T2, purified GST-CREPT protein (microscale …). In words: thermal shift assay; 5.33 μM purified CREPT protein in 50 mM Tris-HCl pH 8.0, 150 mM NaCl, SYPRO Orange, peptide or deionized H2O added; 25 to 70 °C at 1 °C/min. The conditions noted are these: both partners purified.

With “FITC-AHX-IYP (OH) AL-AHX-KDVPSEKEKKPEEYKQKPARV-RRRRK [FITC-PRTC-m, FITC labeled PRTC-m]”, in the data set with Panc-1 cells, the “localization of FITC labeled peptides in the cells” value is “strong localization”.

“GST-CL-m: GST protein tagged with CL-m (KDVPSEKEKKPEEYKQKPARV; also: GST tag, end not given here)”: in the data set with Flag-CREPT, the “pull down of Flag-CREPT in vitro” value is “lost the ability to associate”. The “binding in exogenous IP” value in the data set with Myc-CREPT and Myc-CCT is recorded as “failed to bind”. With `CC[C@H](C)[C@H](NC(=O)CCCCCNC(=S)Nc1ccc2c(c1)C(=O)OC21c2ccc(O)cc2Oc2cc(O)ccc21)C(=O)N[C@@H](Cc1ccc(O)cc1)C(=O)N1C[C@H](O)C[C@H]1C(=O)N[C@@H](C)C(=O)N[C@@H](CC(C)C)C(=O)NCCCCCC(=O)N[C@@H](CCCCN)C(=O)N[C@@H](CC(=O)O)C(=O)N[C@H](C(=O)N[C@@H](CC(C)C)C(=O)N[C@@H](CO)C(=O)N[C@@H](CCC(=O)O)C(=O)N[C@@H](CCCCN)C(=O)N[C@@H](CCC(=O)O)C(=O)N[C@@H](CCCCN)C(=O)N[C@@H](CCCCN)C(=O)N[C@@H](CC(C)C)C(=O)N[C@@H](CCC(=O)O)C(=O)N[C@@H](CCC(=O)O)C(=O)N[C@@H](Cc1ccc(O)cc1)C(=O)N[C@@H](CCCCN)C(=O)N[C@@H](CCC(N)=O)C(=O)N[C@@H](CCCCN)C(=O)N[C@@H](CC(C)C)C(=O)N[C@@H](C)C(=O)N[C@@H](CCCNC(=N)N)C(=O)N[C@H](C(=O)O)C(C)C)C(C)C` [FITC-PRTC-r] ({FITC-Ahx}-IY[Hyp]AL[Ahx]KDVLSEKEKKLEEYKQKLARV-OH), in the data set on Panc-1 cells, the “localization of FITC labeled peptides in the cells” value is given as “very weak localization”.

B1: FITC-PRTC (peptide)
peptide: {FITC-Ahx}-IY[Hyp]AL[Ahx]KDVLSEKEKKLEEYKQKLARVRRRRK
notes: VHL ligand IYP(OH)AL; the P is trans-4-hydroxy-L-proline; followed by the AHX linker; CREPT ligand (CL): leucine-zipper-like motif of CREPT (RPRD1B), lysine 266 to valine 286; transmembrane transport pentapeptide; Peptide-based PROTAC: VHL ligand, AHX linker, CREPT ligand, RRRRK; also called FITC-labeled PRTC; source: synthetic peptide (ChinaPeptides Co., Ltd.), purified by HPLC
Take B1: the Kd – broadly, a measure of binding affinity in units of concentration – in data set [1] came to 340 nM.

B2: PRTC (peptide)
peptide: IY[Hyp]AL[Ahx]KDVLSEKEKKLEEYKQKLARVRRRRK
notes: VHL ligand IYP(OH)AL; the P is trans-4-hydroxy-L-proline; followed by the AHX linker; CREPT ligand (CL): leucine-zipper-like motif of CREPT (RPRD1B), lysine 266 to valine 286; transmembrane transport pentapeptide; The thermal shift assay names the peptide only as PRTC; also called cell-permeable peptide-based PROTAC against CREPT; source: synthetic peptide (ChinaPeptides Co., Ltd.), purified by …
Regarding B2, the “dTm (thermal shift)” value in data set [2] was determined as 6 °C.
